“And” between values parts separate entries of the source, which are not always exact repeats. Identical values can stand only once. Like-named read-outs stand apart in the source and are kept apart here.
Key:
[1] = Water solubility of naringenin-5-rhamnoside (0.2 μm filtered solutions, HPLC); format: physicochemical; details: read-out: maximum water solubility
Description: FIG. 1: Determination of solubility of naringenin-5-O-α-L-rhamnoside (NR1) in water. Defined concentrations of NR1 were 0.22 μm-filtered before injection to HPLC. Soluble concentrations were calculated from peak areas by determined regression curves.
FIG. 1 illustrates the amounts of Naringenin-5-rhamnoside recaptured from a RP18 HPLC-column after loading of a 0.2 μm filtered solution containing defined amounts up to 25 mM of the same. Amounts were calculated from a regression curve.

[2] = tested on: normal human epidermal keratinocytes (NHEK); assay: Cytotoxicity on NHEK monolayer cultures (MTT reduction assay and morphological observation); format: cell-based; details: for Viability (%): single values, listed as Nar-5-Rha
Description: To determine the cytotoxicity of flavonoid-5-O-α-L-rhamnosides tests were performed versus their aglycon derivatives in cell monolayer cultures. For this purpose concentrations ranging from 1 μM to 250 μM were chosen. The viability of normal human epidermal keratinocytes (NHEK) was twice evaluated by a MTT reduction assay and morphological observation with a microscope. NHEK were grown at 37° C. and 5% CO2 aeration in Keratinocyte-SFM medium supplemented with epidermal growth factor (EGF) at 0.25 ng/mL, pituitary extract (PE) at 25 μg/mL and gentamycin (25 μg/mL) for 24 h and were used at the 3rd passage. For cytotoxicity testing, pre-incubated NHEK were given fresh culture medium containing a specific concentration of test compound and incubated for 24 h. After a medium change at same test concentration cells were incubated a further 24 h until viability was determined. Test results are given in Table B2 and illustrated in FIG. 10.

[3] = tested on: PGE2; assay: PGE2 release in stimulated NHEK (ELISA); format: cell-based, human; details: Homo sapiens, NHEK, PMA 1 μg/ml; for inhibition at 1 µM: 10^−6 M
Description: (§1) NHEK were pre-incubated for 24 h with the test compounds. The medium was replaced with the NHEK culture medium containing the inflammatory inducers (PMA or Poly I:C) and incubated for another 24 hours. Positive and negative controls ran in parallel. At the endpoint the culture supernatants were quantified of secreted IL-8, PGE2 and TNF-α by means of ELISA.

[4] = tested on: IL-8; assay: IL-8 release in stimulated NHEK (ELISA); format: cell-based, human; details: Homo sapiens, NHEK
Description: as §1

[5] = tested on: TNF-α; assay: TNF-α release in stimulated NHEK (ELISA); format: cell-based, human; details: Homo sapiens, NHEK, poly(I:C), read-out: TNFα Inhibition %
Description: as §1

[6] = tested on: lipid peroxides (C11-fluor) in NHEK cells; assay: Protection against UV-induced lipid peroxide in NHEK (C11-fluor probe, flow cytometry); format: cell-based, human
Description: (§2) Pre-incubated NHEK were incubated with the test compound for 24 h. Then the specific fluorescence probe for the measurement of hydrogen peroxide (DHR) or lipid peroxides (C11-fluor) was added and incubated for 45 min. Irradiation occurred with in H2O2 determination UVB at 180 mJ/cm^2 (+UVA at 2839 mJ/cm^2) or UVB at 240 mJ/cm^2 (+UVA at 3538 mJ/cm^2) in lipid peroxide, respectively, using a SOL500 Sun Simulator lamp. After irradiation the cells were post-incubated for 30 min before flow-cytometry analysis.

[7] = tested on: hydrogen peroxide (DHR) in NHEK cells; assay: Protection against UV-induced H2O2 stress in NHEK (DHR probe, flow cytometry); format: cell-based, human; details: 180 mJ/cm^2 UVB (2839 mJ/cm^2 UVA); for H2O2 (AU) (DHR GMFI): single values
Description: as §2

[8] = tested on: VEGF; assay: VEGF release in NHDF (ELISA); format: cell-based, human; details: 1 μg/ml, 72 hours
Description: (§3) Tests were performed with normal human dermal fibroblast cultures at the 8th passage. Cells were grown in DMEM supplemented with glutamine at 2 mM, penicillin at 50 U/mL and streptomycin (50 μg/mL) and 10% of fetal calf serum (FCS) at 37° C. in a 5% CO2 atmosphere.
(§4) Fibroblasts were cultured for 24 hours before the cells were incubated with the test compounds for further 72 hours. After the incubation the culture supernatants were collected in order to measure the released quantities of procollagen I, VEGF, and fibronectin by means of ELISA. Reference test compounds were vitamin C (procollagen I), PMA (VEGF), and TGF-β (fibronectin).

[9] = tested on: procollagen I; assay: Procollagen I synthesis in NHDF (ELISA); format: cell-based, human; details: 20 μg/ml, 72 hours
Description: as §3, §4

[10] = tested on: fibronectin; assay: Fibronectin synthesis in NHDF (ELISA); format: cell-based, human; details: 10 ng/ml, 72 hours
Description: as §3, §4

[11] = 50 μM, 240 mJ/cm^2 UVB (3538 mJ/cm^2 UVA)
[12] = 50 μM, 240 mJ/cm^2 UVB (3538 mJ/cm^2 UVA), single values

## C[C@@H]1O[C@@H](Oc2cc(O)cc3c2C(=O)CC(c2ccc(O)cc2)O3)[C@H](O)[C@H](O)[C@H]1O (mixture of isomers) [NR1, Naringenin-5-O-α-L-rhamnoside]
[1]; equivalent of 10 mmol/L
  solubility: ~4200 µg/mL
[1]
  solubility: ~10 mM
[2]; 1 μM
  Viability (%) Mean: 101%
  Viability (%): 91% and 111%
[2]; 2.5 μM
  Viability (%) Mean: 93%
  Viability (%): 92% and 93%
[2]; 5 μM
  Viability (%) Mean: 86%
  Viability (%): 85% and 88%
[2]; 10 μM
  Viability (%) Mean: 97%
  Viability (%): 94% and 100%
[2]; 25 μM
  Viability (%) Mean: 95%
  Viability (%): 92% and 98%
[2]; 50 μM
  Viability (%) Mean: 84%
  Viability (%): 78% and 91%
[2]; 100 μM
  Viability (%) Mean: 86%
  Viability (%): 82% and 90%
[2]; 250 μM
  Viability (%) Mean: 83%
  Viability (%): 79% and 87%
[3]; 100 μM
  inhibition at 100 µM: 21%
[4]; PMA
  inhibition at 100 µM: 12%
[4]; poly(I:C)
  inhibition at 100 µM: 14%
[5]
  inhibition at 100 µM: 8%
[6]
  anti-oxidative function on lipid peroxides (in words): anti-oxidative function

## COc1ccc(O)c(C(C)(C)C)c1 [BHA]
[7]; 100 μM
  H2O2 % irradiated control: 42%
  H2O2 (AU) Mean: 776 AU
  H2O2 Protection %: 70%
  H2O2 (AU) (DHR GMFI): 740 AU and 834 AU and 754 AU

## Cc1cc(C(C)(C)C)c(O)c(C(C)(C)C)c1 [BHT]
[6]; [11]
  C11-fluor(AU) Mean (1/GMFI): 3.3E−04 AU
  lipid peroxide % Irradiated control: 72%
  lipid peroxide Protection %: 37%
[6]; [12]
  C11-fluor(AU) 1/GMFI: 3.2E−04 AU and 3.3E−04 AU and 3.5E−04 AU
  C11-fluor(AU) GMFI: 3139 AU and 3047 AU and 2877 AU

## C[C@@H]1C[C@H]2[C@@H]3CCC4=CC(=O)C=C[C@]4(C)[C@@]3(F)[C@@H](O)C[C@]2(C)[C@@]1(O)C(=O)CO [Dexamethasone, reference compound]
[3]
  inhibition at 1 µM: 9%

## COc1ccc2c(c1)c(CC(=O)O)c(C)n2C(=O)c1ccc(Cl)cc1 [Indomethacin, reference compound]
[3]
  inhibition at 1 µM: 106%

## CCCCCCCCCCCCCC(=O)O[C@@H]1[C@@H](C)[C@@]2(O)[C@@H](C=C(CO)C[C@]3(O)C(=O)C(C)=C[C@@H]23)[C@@H]2C(C)(C)[C@]12OC(C)=O [PMA, reference compound]
[8]
  Mean VEGF: 148 pg/mL
  VEGF % Control: 205%
  VEGF % Stimulation: 105%
[8]; single values
  VEGF: 150 pg/mL and 143 pg/mL

## Cc1c(C)c2c(c(C)c1O)CC[C@@](C)(CCC[C@H](C)CCC[C@H](C)CCCC(C)C)O2 [Vit. E]
[7]; 50 μM
  H2O2 % irradiated control: 35%
  H2O2 (AU) Mean: 655 AU
  H2O2 Protection %: 78%
  H2O2 (AU) (DHR GMFI): 628 AU and 650 AU and 687 AU

## O=C1O[C@H]([C@@H](O)CO)C(O)=C1O [Vitamin C]
[9]
  Procollagen I % Control: 316%
  Procollagen I % Stimulation: 216%
  Procollagen I Mean: 5272 ng/mL
[9]; single values
  Procollagen I: 4739 ng/mL and 5854 ng/mL and 5225 ng/mL

## TGF-β
[10]
  Fibronectin % Control: 181%
  Fibronectin % Stimulation: 81%
[10]; single values
  Fibronectin: 10870 ng/mL and 11178 ng/mL and 11128 ng/mL

Reference: patent US20190100549A1, “FLAVONOIDE-TYPE COMPOUNDS BEARING AN O-RHAMNOSYL RESIDUE” (Universitaet Hamburg, priority 2016, published 2019)
